Data reported in US20260297042A1, “BIARYLAMIDE DERIVATIVES AND THEIR USE AS PKMYT1 INHIBITORS” (CANCER RESEARCH TECHNOLOGY LIMITED, priority 2023, published 2026).

What was measured:
Human PKMYT1 = biological target: T1, Human PKMYT1 (Homo sapiens, UniProt Q99640); assay: PKMYT1 biochemical ADP-Glo enzymatic assay; conditions: ADP-Glo; 15 nM PKMYT1 kinase domain, 500 µM ATP, 60 minutes at 26° C.; banded
T1 construct: Human PKMYT1 75-362 was cloned as a TEV cleavable 6xHis fusion; 6xHis (TEV cleavable) (cleaved yes); made in house; host or cells: bacterial cells
T1 sequence (Q99640 75-362): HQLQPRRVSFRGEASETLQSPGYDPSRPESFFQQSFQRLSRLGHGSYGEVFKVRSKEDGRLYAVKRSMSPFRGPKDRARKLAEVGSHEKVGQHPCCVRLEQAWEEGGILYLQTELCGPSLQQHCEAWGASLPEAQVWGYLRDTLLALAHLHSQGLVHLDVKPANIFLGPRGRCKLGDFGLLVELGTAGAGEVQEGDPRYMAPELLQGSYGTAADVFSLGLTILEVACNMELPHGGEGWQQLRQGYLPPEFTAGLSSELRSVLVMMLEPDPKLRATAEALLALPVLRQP
In short: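 IC50 values come from 10-point 3-fold series, with replicates required within 3-fold and r2 >0.9. ADP formed by PKMYT1 intrinsic ATPase (500 uM ATP, 60 min, 26° C.) was quantified by ADP-Glo luminescence. The enzyme was the TEV-cleaved kinase domain 75-362 at 15 nM, in HEPES pH 7.5 buffer.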

WEE1 = biological target: T2, WEE1 (Homo sapiens, UniProt P30291); assay: Selectivity versus WEE1 assay (ADP-Glo enzymatic assay); assay type: biochemical; conditions: banded; for IC50: ADP-Glo, 15 nM WEE1, 60 minutes at 26° C.; for PKMYT1 vs. WEE1 selectivity: fold difference in selectivity for PKMYT1 over WEE1, ">N" = at least in this band but could be higher
T2 construct: purchased Thermo Fisher PR7373A
In short: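 ADP-Glo luminescent read-out after a 60-min, 26 °C kinase reaction of 15 nM WEE1 with 30 µM ATP, in HEPES pH 7.5 buffer containing MgCl2, EGTA, Brij-35 and 1% DMSO. IC50 accepted only when replicate values agree within 3-fold and curve fit r2 exceeds 0.9.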

OVCAR3 cells = assay: Cancer cell line proliferation assay, nuclear count, OVCAR3 (CCNE1-amplified); assay type: cell-based; conditions: banded; for Selectivity ratio KYSE30 GI50 vs. OVCAR3 GI50: >N = at least in this band; for GI50: Homo sapiens, OVCAR-3, CCNE1-amplified ovarian cancer, nuclear count
Description: (§1) h-TERT-RPE1 TP53−/− and CCNE1 high expressing clones (clone cell lines 7 and 15) were treated with test compounds dissolved in DMSO at serially diluted concentrations alongside a DMSO only control for around 6 population doublings time. Cells were then fixed with 4% Paraformaldehyde and the cell nuclei were stained with DAPI (Sigma D9542). Images covering each well were acquired by an Opera Phenix® High-Content Screening System (PerkinElmer). Image analysis was performed using Harmony® high-content analysis software (PerkinElmer). Data analysis was performed using Microsoft Excel® and GI50 estimates generated with GraphPad Prism v9. Percent nuclear count was compared to vehicle control wells and used to measure inhibition of proliferation.
(§2) Cancer cell lines with either normal (KYSE-30) or amplified CCNE1 expression (OVCAR3-ovarian cancer) were evaluated for their sensitivity to PKMYT1 inhibitors in a nuclear count assay as described above for h-TERT-RPE1 TP53−/− and a CCNE1 high expressing clones, taking into account the slower cell cycle division times of these lines.

KYSE-30 cells [1] = assay: Cancer cell line proliferation assay, nuclear count, KYSE-30 (normal CCNE1); assay type: cell-based; conditions: Homo sapiens, normal CCNE1 expression, banded, read-out: KYSE30 GI50
Description: as §1, §2

[2] = biological target: T3, Cellular PKMYT1 Biomarker CDK1 pT14 (Homo sapiens, UniProt Q99640); assay: Inhibition of cellular PKMYT1 biomarker CDK1 pT14 in OVCAR 3 cells (immunoblot); assay type: cell-based; conditions: 20 hours incubation
T3 construct: read-out CDK1 phospho-T14 immunoblot
T3 sequence (Q99640 1-499): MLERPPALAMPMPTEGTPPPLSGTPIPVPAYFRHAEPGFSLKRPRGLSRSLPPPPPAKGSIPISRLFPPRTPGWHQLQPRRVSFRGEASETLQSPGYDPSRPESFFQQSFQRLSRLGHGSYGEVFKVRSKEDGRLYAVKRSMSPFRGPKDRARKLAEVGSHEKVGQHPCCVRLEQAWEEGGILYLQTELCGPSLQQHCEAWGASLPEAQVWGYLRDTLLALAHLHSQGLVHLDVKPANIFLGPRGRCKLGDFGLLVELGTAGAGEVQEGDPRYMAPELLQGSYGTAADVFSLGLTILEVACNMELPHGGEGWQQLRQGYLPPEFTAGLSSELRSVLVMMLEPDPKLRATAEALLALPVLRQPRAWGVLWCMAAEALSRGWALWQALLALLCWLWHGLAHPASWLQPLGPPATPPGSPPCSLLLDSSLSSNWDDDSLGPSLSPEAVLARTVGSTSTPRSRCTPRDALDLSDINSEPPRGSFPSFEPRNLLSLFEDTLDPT
In short: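 Confluent OVCAR 3 cells treated with a compound concentration range for 20 h at 37 °C. Lysates analysed by automated capillary immunoblot for CDK1 phospho-T14, with vinculin, fluorescence detection; IC50 by regression.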

[3] = test system: h-TERT-RPE1 TP53−/− parental cells; assay: Nuclear count cell proliferation assay, parental (wild type) h-TERT-RPE1 TP53−/− cells; assay type: cell-based; conditions: hTERT-RPE1, h-TERT-RPE1 TP53−/− parental (Wt), around 6 population doublings, banded, read-out: RPE Wt GI50
Description: as §1

[4] = test system: h-TERT-RPE1 TP53−/− CCNE1 high expressing clone cell line 15 (CL15); assay: Nuclear count cell proliferation assay, CCNE1 high expressing clone cell line 15 (CL15) of h-TERT-RPE1 TP53−/−; assay type: cell-based; conditions: banded; for Selectivity Ratio Wt vs. CL15: GI50 ratio RPE Wt vs. CL15, >N = at least in this band; for GI50: h-TERT-RPE1 TP53−/− CCNE1 high clone CL15, nuclear count, around 6 population doublings, read-out: RPE CL15 GI50
Description: as §1

solid tumours = conditions: clinicaltrials.gov; cited from earlier work
[5] = test system: h-TERT-RPE1 TP53−/− CCNE1 high expressing clone cell line 7 (CL7); assay: Nuclear count cell proliferation assay, CCNE1 high expressing clone cell line 7 (CL7) of h-TERT-RPE1 TP53−/−; assay type: cell-based; conditions: banded; for Selectivity Ratio Wt vs. CL7: GI50 ratio RPE Wt vs. CL7, >N = at least in this band; for GI50: hTERT-RPE1, h-TERT-RPE1 TP53−/− CCNE1 high clone CL7, nuclear count, around 6 population doublings, read-out: RPE CL7 GI50
Description: as §1

[6] = test system: breast and ovarian cancers overexpressing CCNE1; conditions: alone or in combination with Gemcitabine; Gallo et al., 2022; cited from earlier work
[7] = test system: pancreatic PDX model with increased expression of CCNE1; conditions: alone or in combination with Gemcitabine; Gallo et al., 2022; cited from earlier work
OVCAR 3 cells = assay: Cancer cell line proliferation assay, ATP-based cell viability (Cell Titre Glow), OVCAR 3 (CCNE1-amplified); conditions: KYSE30 (normal CCNE1) GI50 vs. OVCAR 3 (CCNE1-amplified) GI50
In short: (§3)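 Cells were treated with PKMYT1 inhibitors, then proliferation was assessed with CellTiter-Glo and luminescence read. GI50 values were fitted from the resulting data.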

KYSE-30 cells [8] = assay: Cancer cell line proliferation assay, ATP-based cell viability (Cell Titre Glow), KYSE-30 (normal CCNE1); conditions: Homo sapiens, KYSE-30 cells (normal CCNE1), concentration that achieves 50% cell growth proliferation inhibition, read-out: KYSE30 Gl50
In short: as §3

T2 sequence (P30291 whole entry): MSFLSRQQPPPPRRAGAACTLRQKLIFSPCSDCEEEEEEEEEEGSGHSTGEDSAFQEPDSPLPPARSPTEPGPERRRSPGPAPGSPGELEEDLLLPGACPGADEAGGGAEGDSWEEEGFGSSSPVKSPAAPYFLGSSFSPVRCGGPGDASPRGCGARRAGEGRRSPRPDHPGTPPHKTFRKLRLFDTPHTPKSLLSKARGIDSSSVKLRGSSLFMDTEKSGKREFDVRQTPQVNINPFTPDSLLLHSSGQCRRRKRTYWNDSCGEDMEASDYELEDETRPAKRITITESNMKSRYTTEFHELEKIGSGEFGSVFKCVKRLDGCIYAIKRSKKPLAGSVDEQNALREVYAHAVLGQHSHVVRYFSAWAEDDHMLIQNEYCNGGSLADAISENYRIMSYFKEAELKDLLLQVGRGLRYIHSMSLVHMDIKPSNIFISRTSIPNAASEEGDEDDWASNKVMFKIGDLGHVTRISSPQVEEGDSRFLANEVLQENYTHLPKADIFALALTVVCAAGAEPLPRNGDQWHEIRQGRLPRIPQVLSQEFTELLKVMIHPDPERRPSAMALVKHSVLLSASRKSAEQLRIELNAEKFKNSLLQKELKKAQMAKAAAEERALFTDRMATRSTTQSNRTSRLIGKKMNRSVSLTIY

Row | SMILES | IC50 (Human PKMYT1) | IC50 (WEE1) | PKMYT1 vs. WEE1 selectivity (WEE1) | Selectivity ratio KYSE30 GI50 vs. OVCAR3 GI50 (OVCAR3 cells) | GI50 (OVCAR3 cells) | GI50 (KYSE-30 cells [1]) | IC50 [2] | GI50 [3] | Selectivity Ratio Wt vs. CL15 [4] | GI50 [4] | toxicity in clinical trials (solid tumours) | Selectivity Ratio Wt vs. CL7 [5] | GI50 [5] | efficacy in vivo [6] | efficacy in vivo [7] | Selectivity ratio KYSE30 Gl50 vs. OVCAR3 Gl50 (OVCAR 3 cells) | GI50 (KYSE-30 cells [8])
1 | Cc1ccc(O)c(C)c1NC(=O)c1cnc(Nc2cc(C(F)(F)F)n(C)n2)s1 [BAA-047] | 0.05 to 1 µM | > 11 µM | >X (100-<1000 fold) | X (3-<10 fold) | 0.5 to 3 µM | 3 to 10 µM | 0.1 to 1 µM |  |  |  |  |  |  |  |  |  | 
2 | Cc1ccc(O)c(C)c1NC(=O)c1cnc(Nc2ccn(CC(=O)N3CCN(C(=O)OC(C)(C)C)C(C)(C)C3)n2)s1 [BAA-179, tert-butyl 4-[2-[3-[[5-[(3-hydroxy-2,6-dimethyl-phenyl)carbamoyl]thiazol-2-yl]amino]pyrazol-1-yl]acetyl]-2,2-dimethyl-piperazine-1-carboxylate] | < 0.05 µM | 1 to 11 µM | X (100-<1000 fold) | Z (>30 fold) | < 0.5 µM | > 10 µM |  | 3 to 10 µM | Y (10-30 fold) | < 0.5 µM |  |  |  |  |  |  | 
3 | C=CCn1c(=O)c2cnc(Nc3ccc(N4CCN(C)CC4)cc3)nc2n1-c1cccc(C(C)(C)O)n1 [adavosertib] |  |  |  |  |  |  |  |  |  |  | presented significant toxicity |  |  |  |  |  | 
4 | CCN(CC)C(=O)Cn1ccc(Nc2ncc(C(=O)Nc3c(C)ccc(O)c3C)s2)n1 [BAA-173, 2-[[1-[2-(diethylamino)-2-oxo-ethyl]pyrazol-3-yl]amino]-N-(3-hydroxy-2,6-dimethyl-phenyl)thiazole-5-carboxamide] | < 0.05 µM | > 11 µM | Y (1000-5000 fold) | >X (3-<10 fold) | 3 to 10 µM | > 10 µM |  | 0.5 to 3 µM |  |  |  | X (3-<10 fold) | < 0.5 µM |  |  |  | 
5 | Cc1cc2c(C(N)=O)c(N)n(-c3c(C)ccc(O)c3C)c2nc1C [RP-6306] |  |  |  |  |  |  |  |  |  |  |  |  |  | has shown efficacy in vivo | has shown efficacy in vivo |  | 
6 | Cc1ccc(O)c(C)c1NC(=O)c1cnc(Nc2ccn(CC(=O)N3CCCC3)n2)s1 [BAA-148, N-(3-hydroxy-2,6-dimethyl-phenyl)-2-[[1-(2-oxo-2-pyrrolidin-1-yl-ethyl)pyrazol-3-yl]amino]thiazole-5-carboxamide] | < 0.05 µM | > 11 µM | Y (1000-5000 fold) | X (3-<10 fold) | 3 to 10 µM | > 10 µM |  | 0.5 to 3 µM | X (3-<10 fold) | 0.5 to 3 µM |  |  |  |  |  |  | 
7 | Cc1cn(CC(=O)N2CCCC2)nc1Nc1ncc(C(=O)Nc2c(C)ccc(O)c2C)s1 [BAA-208, N-(3-hydroxy-2,6-dimethyl-phenyl)-2-[[4-methyl-1-(2-oxo-2-pyrrolidin-1-yl-ethyl)pyrazol-3-yl]amino]thiazole-5-carboxamide] | < 0.05 µM | 1 to 11 µM | X (100-<1000 fold) | Z (>30 fold) | < 0.5 µM | > 10 µM |  |  |  |  |  |  |  |  |  | Y (>20 fold) | > 5 µM
8 | CCNC(=O)Cn1cc(C)c(Nc2ncc(C(=O)Nc3c(C)ccc(O)c3C)s2)n1 [BAA-206, 2-[[1-[2-(ethylamino)-2-oxo-ethyl]-4-methyl-pyrazol-3-yl]amino]-N-(3-hydroxy-2,6-dimethyl-phenyl)thiazole-5-carboxamide] | < 0.05 µM | 1 to 11 µM | Y (1000-5000 fold) | >Y (10-30 fold) | 0.5 to 3 µM | > 10 µM |  |  |  |  |  |  |  |  |  |  | 
9 | Cc1ccc(O)c(C)c1NC(=O)c1cnc(Nc2ccn(CC(=O)N3CC(F)(F)C(F)(F)C3)n2)s1 [BAA-181, N-(3-hydroxy-2,6-dimethyl-phenyl)-2-[[1-[2-oxo-2-(3,3,4,4-tetrafluoropyrrolidin-1-yl)ethyl]pyrazol-3-yl]amino]thiazole-5-carboxamide] | < 0.05 µM | > 11 µM | Y (1000-5000 fold) | >X (3-<10 fold) | 3 to 10 µM | > 10 µM |  | 0.5 to 3 µM | Y (10-30 fold) | < 0.5 µM |  | X (3-<10 fold) | < 0.5 µM |  |  |  | 
10 | Cc1ccc(O)c(C)c1NC(=O)c1cnc(Nc2cc(C(F)(F)F)nn2C)s1 [BAA-046, N-(3-hydroxy-2,6-dimethyl-phenyl)-2-[[2-methyl-5-(trifluoromethyl)pyrazol-3-yl]amino]thiazole-5-carboxamide] | 0.05 to 1 µM | > 11 µM | >X (100-<1000 fold) | X (3-<10 fold) | 0.5 to 3 µM | 3 to 10 µM |  |  |  |  |  |  |  |  |  |  | 
11 | Cc1ccc(O)c(C)c1NC(=O)c1cnc(Nc2ccn(CC(=O)NC3CCN(C(=O)OC(C)(C)C)CC3)n2)s1 [BAA-152] | < 0.05 µM | 1 to 11 µM | X (100-<1000 fold) |  |  |  |  | > 10 µM | X (3-<10 fold) | 0.5 to 3 µM |  |  |  |  |  |  | 
